For 4 compounds, MIC50, IC50 and Ki results are on record in ChEMBL document CHEMBL1127333, “Antiviral enantiomeric preference for 5'-noraristeromycin” (J Med Chem, 1994).

In experiment [1] the test system is CCRF-CEM. The experiment in a line: Activity against HIV-1 induced cytopathicity in CEM cells. It is filed as functional. The following applies: Homo sapiens.
Experiment [2] relates to CCRF-CEM. The experiment in a line: Activity against HIV-2 induced cytopathicity in CEM cells. It is filed as functional. The following applies: Homo sapiens.
The test system of experiment [3] is E6SM. The experiment in a line: Activity against HSV-1(KOS) virus induced cytopathicity in E6SM cells. It is filed as functional. As to conditions: Homo sapiens.
Experiment [4] relates to E6SM. The experiment in a line: Activity against HSV-2(G) virus induced cytopathicity in E6SM cells. It is filed as functional. As to conditions: Homo sapiens.
Experiment [5] relates to E6SM. The experiment in a line: Activity against VSV virus induced cytopathicity in E6SM cells. It is filed as functional. The following applies: Homo sapiens.
Experiment [6] deals with HEL. The experiment in a line: Activity against CMV (AD-169) induced cytopathicity in HEL cells. In kind it is functional. As to conditions: Homo sapiens.
Experiment [7] deals with HEL. The experiment in a line: Activity against CMV (Davis) induced cytopathicity in HEL cells. In kind it is functional. As to conditions: Homo sapiens.
For experiment [8], the system named is HEL. The experiment in a line: Activity against VZV (OKA) induced cytopathicity in HEL cells. It is filed as functional. The following applies: Homo sapiens.
The subject of experiment [9] is HEL. The experiment in a line: Activity against VZV (YS) induced cytopathicity in HEL cells. In kind it is functional. The following applies: Homo sapiens.
Experiment [10] relates to Respiratory syncytial virus. The experiment in a line: Activity against RSV (strain Long) virus induced cytopathicity in HeLa cells. It is filed as functional. The following applies: human respiratory syncytial virus.
Experiment [11] concerns HeLa. The experiment in a line: Activity against VSV virus induced cytopathicity in HeLa cells. In kind it is functional. As to conditions: Homo sapiens.
The test system of experiment [12] is HeLa. The experiment in a line: Activity against coxsackie B4 virus induced cytopathicity in HeLa cells. In kind it is functional. As to conditions: Homo sapiens.
Experiment [13] concerns HeLa. The experiment in a line: Activity against parainfluenza-3 virus induced cytopathicity in HeLa cells. The following applies: Homo sapiens. In kind it is functional.
The subject of experiment [14] is L1210. The experiment in a line: Inhibitory concentration on murine leukemia L1210/0 cells. It is filed as functional, cell-based. As to conditions: Mus musculus.
For experiment [15], the species on record is Homo sapiens. The experiment in a line: Inhibitory concentration on human T-lymphocyte Molt4 (clone 8) cells. In kind it is functional, cell-based. As to conditions: MOLT-4.
Experiment [16] has as its system Vero. The experiment in a line: Activity against reovirus-1 induced cytopathicity in Vero cells. The following applies: Chlorocebus sabaeus. It is filed as functional.
Experiment [17] has as its system Vero. The experiment in a line: Activity against semliki forest virus induced cytopathicity in Vero cells. It is filed as functional. As to conditions: Chlorocebus sabaeus.
Experiment [18] deals with Vero. The experiment in a line: Activity against sindbis virus induced cytopathicity in Vero cells. It is filed as functional. The following applies: Chlorocebus sabaeus.
Experiment [19] concerns E6SM. The experiment in a line: Activity against VV virus induced cytopathicity in E6SM cells. In kind it is functional. The following applies: Homo sapiens.
Experiment [20] is filed under the species Homo sapiens. The experiment in a line: Inhibitory concentration on human T-lymphocyte CEM/0 cells. The following applies: CCRF-CEM. In kind it is functional, cell-based.
The test system of experiment [21] is HeLa. The experiment in a line: cells. As to conditions: Homo sapiens.
Experiment [22] concerns MDCK. The experiment in a line: cells. The following applies: Canis lupus familiaris.
Experiment [23] deals with MDCK. The experiment in a line: cells. As to conditions: Canis lupus familiaris. This is another data set of the same source.
Experiment [24] deals with Vero. The experiment in a line: cells. As to conditions: Chlorocebus sabaeus.
Experiment [25] has as its system Vero. The experiment in a line: cells. As to conditions: Chlorocebus sabaeus. The source holds these as a separate data set.
The target in experiment [26] is Adenosylhomocysteinase (Mus musculus, UniProt P50247). The experiment in a line: Binding affinity against L929 cells AdoHcy hydrolase activity. It is filed as cell-based.
The species entered for experiment [27] is Homo sapiens. The experiment in a line: Inhibitory concentration on human T-lymphocyte Molt(clone 8) cells. In kind it is functional, cell-based.
For experiment [28], the system named is MDCK. The experiment in a line: Activity against influenza B virus induced cytopathicity in MDCK cells. It is filed as functional. As to conditions: Canis lupus familiaris.
For experiment [29], the system named is MDCK. The experiment in a line: Activity against influenza A virus induced cytopathicity in MDCK cells. As to conditions: Canis lupus familiaris. In kind it is functional.

Molecules are shown by their SMILES. Converted amounts (≈) assume the structure as drawn. A value given as a limit tells only on which side of the number the result lay.

Adenosylhomocysteinase, sequence (P50247 whole entry): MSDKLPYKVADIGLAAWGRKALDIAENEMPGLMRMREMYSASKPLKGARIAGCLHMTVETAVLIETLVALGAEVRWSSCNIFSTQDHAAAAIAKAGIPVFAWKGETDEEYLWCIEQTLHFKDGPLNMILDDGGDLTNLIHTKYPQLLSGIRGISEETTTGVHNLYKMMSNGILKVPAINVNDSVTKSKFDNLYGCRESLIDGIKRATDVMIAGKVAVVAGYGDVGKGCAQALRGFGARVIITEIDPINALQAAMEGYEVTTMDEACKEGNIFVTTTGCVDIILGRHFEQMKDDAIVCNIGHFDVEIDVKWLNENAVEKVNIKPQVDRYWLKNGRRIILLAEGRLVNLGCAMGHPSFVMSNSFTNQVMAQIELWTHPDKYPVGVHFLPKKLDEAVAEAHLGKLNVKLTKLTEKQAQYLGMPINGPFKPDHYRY

As to `Nc1ncnc2c1ncn2[C@H]1C[C@@H](O)[C@H](O)[C@@H]1O`, the MIC50 in [1] is above 4 µg/mL; in experiment [2], above 4 µg/mL; in experiment [3], above 400 µg/mL; in experiment [4] it was above 400 µg/mL; in [5], 2 µg/mL (≈ 7.96 µM); in experiment [6] it was 5 µg/mL (≈ 19.9 µM). The MIC50 in experiment [7] is 3 µg/mL (≈ 11.9 µM); in experiment [8], above 50 µg/mL; in experiment [9], above 50 µg/mL; in [10], above 200 µg/mL; in [11] it was 2 µg/mL (≈ 7.96 µM); in experiment [12], above 400 µg/mL. Besides, the MIC50 in experiment [13] was 0.2 µg/mL (≈ 0.796 µM); in [16] it was 7 µg/mL (≈ 27.9 µM); in experiment [17], above 400 µg/mL; in experiment [18], above 400 µg/mL; in experiment [19], 0.7 µg/mL (≈ 2.79 µM); in experiment [21], above 400 µg/mL. Moreover, the MIC50 in experiment [22] was above 200 µg/mL; in [23], above 200 µg/mL; in [24], 30 µg/mL (≈ 119 µM); in experiment [25] it was 50 µg/mL (≈ 199 µM). The IC50 in [14] is 5700 nM; in experiment [15] it was 4650 nM; in experiment [20] it was 3990 nM.

On to `Nc1ncnc2c1ncn2C1CC(O)C(O)C1O` (racemic), for which the IC50 in [14] worked out at 630 nM; in [27], 580 nM; in experiment [20], 680 nM. Moreover, in experiment [26], the affinity, expressed as Ki, was 11.1 nM.

As for `Nc1ncnc2c1ncn2[C@@H]1C=C(CO)[C@@H](O)[C@H]1O` [NEOPLANOCIN A], the MIC50 in experiment [3] was 70 µg/mL (≈ 266 µM); in [4], above 100 µg/mL; in experiment [5] it was 2 µg/mL (≈ 7.6 µM); in experiment [6] it was 0.2 µg/mL (≈ 0.76 µM); in [7], 0.2 µg/mL (≈ 0.76 µM); in experiment [8], 6 µg/mL (≈ 22.8 µM). For the same compound, the MIC50 is 3.5 µg/mL (≈ 13.3 µM) in experiment [9]; above 1.2 µg/mL in experiment [10]; 2 µg/mL (≈ 7.6 µM) in experiment [11]; above 10 µg/mL in experiment [12]; 0.2 µg/mL (≈ 0.76 µM) in experiment [13]; 0.7 µg/mL (≈ 2.66 µM) in experiment [16]. Further, the MIC50 in experiment [17] is above 10 µg/mL; in experiment [18], above 10 µg/mL; in experiment [19], 0.2 µg/mL (≈ 0.76 µM); in experiment [21], above 10 µg/mL; in experiment [22] it was 1.2 µg/mL (≈ 4.56 µM); in experiment [23], above 2.8 µg/mL. Besides, the MIC50 in [24] and in experiment [25] was 0.4 µg/mL (≈ 1.52 µM) each time. The compound also showed a Ki in experiment [26] of 3 nM.

`Nc1ncnc2c1ncn2[C@@H]1C[C@H](O)[C@@H](O)[C@H]1O` [NORARISTEROMYCIN]: the MIC50 was above 0.16 µg/mL in experiment [1]; above 0.16 µg/mL in experiment [2]; above 400 µg/mL in [3]; above 400 µg/mL in [4]; 0.1 µg/mL (≈ 0.398 µM) in experiment [5]; 0.01 µg/mL (≈ 0.0398 µM) in experiment [6]. Moreover, the MIC50 in experiment [7] was 0.03 µg/mL (≈ 0.119 µM); in experiment [8], above 50 µg/mL; in experiment [9] it was above 50 µg/mL; in experiment [10] it was above 200 µg/mL; in [11], 0.2 µg/mL (≈ 0.796 µM); in experiment [12], above 400 µg/mL. Further, the MIC50 is 0.07 µg/mL (≈ 0.279 µM) in [13]; above 100 µg/mL in [28]; 0.7 µg/mL (≈ 2.79 µM) in experiment [16]; above 400 µg/mL in [17]; above 400 µg/mL in [18]; 0.04 µg/mL (≈ 0.159 µM) in experiment [19]. Moreover, the MIC50 in experiment [29] is above 100 µg/mL; in [21], above 400 µg/mL; in experiment [24], 6 µg/mL (≈ 23.9 µM); in experiment [25], 8 µg/mL (≈ 31.8 µM). Moreover, the IC50 in [14] amounted to 500 nM; in [15], 390 nM; in [20], 420 nM.
